In patent US8410152B2 (Max-Planck-Gesellschaft zur Forderung der Wissenschaften e. …, priority 2006, dated 2013):

Legend:
[1] = molecular target: tau construct K19 (Homo sapiens, UniProt P10636); assay: Thioflavine S (ThS) assay for aggregation of tau; assay type: biochemical; settings: 10 μM tau construct K19, 2.5 μM heparin, ThS fluorescence; for DC50: read-out: DC50; for IC50: over night at 37° C., read-out: ID50 (the source's name)
Procedure: Thioflavine S (ThS) Assay for aggregation of tau: 10 μM of the tau construct K19 were incubated with compounds in a concentration range from 1 nM up to 200 μM in the presence of 2.5 μM heparin in 50 mM NH4Ac buffer over night at 37° C. After addition of 20 μM ThS the signal was measured at 521 nm (emission) at an excitation wavelength of 440 nm. The results of this assay are presented in the IC50 column and DC50 column of Table 1 below.

[2] = tested on: uninduced N2A cells; assay type: cell-based; settings: cell death as percent of LDH released into medium vs total LDH, compound 10 μM
Procedure: Neurotoxicity assay: Neurotoxicity was assessed using an LDH (lactate dehydrogenase) assay kit (Roche, Mannheim, Germany) according to the manufacturer's specifications. In the viability assay the aggregation inhibitor compound was added at a final concentration of 10 μM to uninduced N2A cells. The activity of LDH was measured spectrophotometrically at 492 nm. Cell death was calculated as percent of LDH released into medium, compared to total LDH obtained after total cell lysis.

Sequence of tau construct K19 (P10636 with tags, fused parts or gaps isoform P10636-2 limits assumed): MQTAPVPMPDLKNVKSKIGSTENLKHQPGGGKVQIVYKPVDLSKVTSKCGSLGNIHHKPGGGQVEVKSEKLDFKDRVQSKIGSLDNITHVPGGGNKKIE

SMILES: O=C(NNc1nc(-c2ccc(Br)cc2)cs1)c1ccncc1 [Comp. 21, N′-[4-(4-bromophenyl)-1,3-thiazol-2-yl]isonicotinohydrazide]
- DC50 [1]: 20.2 µM
- IC50 [1]: 18 µM
- LDH [2]: 1.5%

SMILES: O=C(NNc1nc(-c2cc3ccccc3oc2=O)cs1)c1ccc2c(c1)OCO2 [Comp. 33, N′-[4-(2-oxo-2H-chromen-3-yl)-1,3-thiazol-2-yl]-1,3-benzodioxole-5-carbohydrazide]
- DC50 [1]: > 200 µM
- IC50 [1]: > 200 µM
- LDH [2]: 2.0%

SMILES: O=C(NNc1nc(-c2ccc(N3CCCC3)cc2)cs1)c1ccc(F)cc1 [Comp. 15, 4-fluoro-N′-[4-(4-pyrrolidin-1-ylphenyl)-1,3-thiazol-2-yl]benzohydrazide]
- DC50 [1]: 0.7 µM
- IC50 [1]: 4.9 µM
- LDH [2]: −1.1%

SMILES: O=C(NNc1nc(-c2ccccc2)cs1)c1ccc(F)cc1 [Comp. 34, 4-fluoro-N′-(4-phenyl-1,3-thiazol-2-yl)benzohydrazide]
- DC50 [1]: > 200 µM
- IC50 [1]: > 200 µM
- LDH [2]: 2.6%

SMILES: COc1cccc(-c2csc(NNC(=O)c3ccc(Cl)cc3)n2)c1 [Comp. 27, 4-chloro-N′-[4-(3-methoxyphenyl)-1,3-thiazol-2-yl]benzohydrazide]
- DC50 [1]: > 200 µM
- IC50 [1]: 59.2 µM
- LDH [2]: 42.1%

SMILES: [N-]=[N+]=Nc1ccc(-c2csc(NNC(=O)c3ccc(F)cc3)n2)cc1 [Comp. 14, N′-[4-(4-azidophenyl)-1,3-thiazol-2-yl]-4-fluorobenzohydrazide]
- DC50 [1]: 1.3 µM
- IC50 [1]: 4.7 µM
- LDH [2]: 42.5%

SMILES: O=C(NNc1nc(-c2ccccc2)cs1)c1ccccc1F [Comp. 41, 2-fluoro-N′-(4-phenyl-1,3-thiazol-2-yl)benzohydrazide]
- DC50 [1]: 127 µM
- IC50 [1]: > 200 µM
- LDH [2]: 6.5%

SMILES: O=C(NNc1nc(-c2ccc(Br)cc2)cs1)c1ccc2ccccc2c1 [Comp. 3, N′-(4-(4-Bromophenyl)thiazol-2-yl)-2-naphthohydrazide]
- DC50 [1]: 169 µM
- IC50 [1]: > 200 µM
- LDH [2]: 4.2%

SMILES: O=C(NNc1nc2c(s1)Cc1ccccc1-2)c1ccc2c(c1)OCO2 [Comp. 44, N′-8H-indeno[1,2-d][1,3]thiazol-2-yl-1,3-benzodioxole-5-carbohydrazide]
- DC50 [1]: > 200 µM
- IC50 [1]: > 200 µM
- LDH [2]: 18.8%

SMILES: COc1cccc(-c2csc(NNC(=O)c3cccs3)n2)c1 [Comp. 23, N′-[4-(3-methoxyphenyl)-1,3-thiazol-2-yl]thiophene-2-carbohydrazide]
- DC50 [1]: > 200 µM
- IC50 [1]: 28.3 µM
- LDH [2]: 25.3%

SMILES: O=C(NNc1nc(-c2cc3ccccc3oc2=O)cs1)c1cccnc1 [Comp. 2, N′-(4-(2-Oxo-2H-chromen-3-yl)thiazol-2-yl)nicotinohydrazide]
- DC50 [1]: 11.1 µM
- IC50 [1]: 23.2 µM
- LDH [2]: 15.4%

SMILES: O=C(NNc1nc(-c2cc3ccccc3oc2=O)cs1)c1ccc2ccccc2c1 [Comp. 4, N′-(4-(2-Oxo-2H-chromen-3-yl)thiazol-2-yl)-2-naphthohydrazide]
- DC50 [1]: 88 µM
- IC50 [1]: > 200 µM
- LDH [2]: 15.7%

SMILES: O=C(NNc1nc(-c2ccc(Cl)cc2)cs1)c1ccccc1F [Comp. 72, N′-[4-(4-chlorophenyl)-1,3-thiazol-2-yl]-2-fluorobenzohydrazide]
- DC50 [1]: > 200 µM
- IC50 [1]: 101 µM

SMILES: CN(Nc1nc(-c2ccc([N+](=O)[O-])cc2)cs1)C(=O)c1ccc(-c2ccccc2)cc1 [Comp. 76, N-methyl-N′-[4-(4-nitrophenyl)-1,3-thiazol-2-yl]-1,1′-biphenyl-4-carbohydrazide]
- DC50 [1]: 138 µM
- IC50 [1]: 67.6 µM

SMILES: O=C(NNc1nc(-c2ccccc2)cs1)c1ccc2ccccc2c1 [Comp. 42, N′-(4-phenyl-1,3-thiazol-2-yl)-2-naphthohydrazide]
- DC50 [1]: 16.4 µM
- IC50 [1]: > 200 µM
- LDH [2]: 8.2%

SMILES: O=C(NNc1nc(-c2ccc(F)cc2)cs1)c1ccc(Cl)cc1 [Comp. 31, 4-chloro-N′-[4-(4-fluorophenyl)-1,3-thiazol-2-yl]benzohydrazide]
- DC50 [1]: > 200 µM
- IC50 [1]: 184 µM
- LDH [2]: 56.1%

SMILES: O=C(NNc1nc(-c2ccc([N+](=O)[O-])cc2)cs1)Nc1ccccc1 [Comp. 6]
- DC50 [1]: 33.5 µM
- IC50 [1]: 10.8 µM
- LDH [2]: 2.1%

SMILES: COc1cccc(-c2csc(NNC(=O)c3ccncc3)n2)c1 [Comp. 35, N′-[4-(3-methoxyphenyl)-1,3-thiazol-2-yl]isonicotinohydrazide]
- DC50 [1]: > 200 µM
- IC50 [1]: > 200 µM
- LDH [2]: 3.2%

SMILES: O=C(NNc1nc(-c2ccc(N3CCCC3)cc2)cs1)c1ccc2ccccc2c1 [Comp. 16, N′-[4-(4-pyrrolidin-1-ylphenyl)-1,3-thiazol-2-yl]-2-naphthohydrazide]
- DC50 [1]: 1.5 µM
- IC50 [1]: 5.8 µM
- LDH [2]: 15.3%

SMILES: O=C(NNc1nc(-c2ccccc2)cs1)c1cccs1 [Comp. 22, N′-(4-phenyl-1,3-thiazol-2-yl)thiophene-2-carbohydrazide]
- DC50 [1]: 35.5 µM
- IC50 [1]: 25.3 µM
- LDH [2]: 14.8%

SMILES: O=C(NNc1nc(-c2ccc(Cl)cc2)cs1)c1ccccc1 [Comp. 71, N′-[4-(4-chlorophenyl)-1,3-thiazol-2-yl]benzohydrazide]
- DC50 [1]: > 200 µM
- IC50 [1]: > 200 µM

SMILES: Cc1sc(NNC(=O)c2ccc(Cl)cc2)nc1-c1cccc([N+](=O)[O-])c1 [Comp. 19, 4-chloro-N′-[5-methyl-4-(3-nitrophenyl)-1,3-thiazol-2-yl]benzohydrazide]
- DC50 [1]: 10.8 µM
- IC50 [1]: 7.7 µM
- LDH [2]: 47.4%

SMILES: O=C(NNc1nc(-c2ccc(Br)cc2)cs1)c1ccc2[nH]cnc2c1 [Comp. 43, N′-[4-(4-bromophenyl)-1,3-thiazol-2-yl]-1H-benzimidazole-5-carbohydrazide]
- DC50 [1]: 31.7 µM
- IC50 [1]: > 200 µM
- LDH [2]: 11.5%

SMILES: O=C(NNc1nc(-c2ccccc2)cs1)c1ccc(Cl)cc1
- DC50 [1]: > 200 µM
- IC50 [1]: > 200 µM
- LDH [2]: 34.3%

SMILES: COc1ccc(-c2csc(NNC(=O)c3ccccc3F)n2)cc1 [Comp. 70, 2-fluoro-N′-[4-(4-methoxyphenyl)-1,3-thiazol-2-yl]benzohydrazide]
- DC50 [1]: 30.5 µM
- IC50 [1]: 20.4 µM

SMILES: O=C(NNc1nc(-c2cccc([N+](=O)[O-])c2)cs1)c1ccccc1F [Comp. 73, 2-fluoro-N′-[4-(3-nitrophenyl)-1,3-thiazol-2-yl]benzohydrazide]
- DC50 [1]: 38.5 µM
- IC50 [1]: 17.5 µM

SMILES: CC(C)(C)c1csc(NNC(=O)c2ccc(Cl)cc2)n1 [Comp. 48, N′-(4-tert-butyl-1,3-thiazol-2-yl)-4-chlorobenzohydrazide]
- DC50 [1]: > 200 µM
- IC50 [1]: > 200 µM
- LDH [2]: 48.1%

SMILES: O=C(NNc1nc(-c2ccc([N+](=O)[O-])cc2)cs1)c1ccco1 [Comp. 17, N′-[4-(4-nitrophenyl)-1,3-thiazol-2-yl]-2-furohydrazide]
- DC50 [1]: 0.8 µM
- IC50 [1]: 6.3 µM
- LDH [2]: 4.9%

SMILES: O=C(NNc1nc(-c2ccc(N3CCCC3)cc2)cs1)c1ccc(F)nc1 [Comp. 75, 6-fluoro-N′-[4-(4-pyrrolidin-1-ylphenyl)-1,3-thiazol-2-yl]nicotinohydrazide]
- DC50 [1]: 44.6 µM
- IC50 [1]: 42.1 µM
- LDH [2]: 12.2%

SMILES: O=C(NNc1nc(-c2ccc([N+](=O)[O-])cc2)cs1)c1ccc(F)cc1 [Comp. 18, 4-fluoro-N′-[4-(4-nitrophenyl)-1,3-thiazol-2-yl]benzohydrazide]
- DC50 [1]: 0.9 µM
- IC50 [1]: 6.9 µM
- LDH [2]: 46.9%

SMILES: O=C(NNc1nc(-c2cccs2)cs1)c1ccc(Cl)cc1 [Comp. 29, 4-chloro-N′-(4-thien-2-yl-1,3-thiazol-2-yl)benzohydrazide]
- DC50 [1]: > 200 µM
- IC50 [1]: 146 µM
- LDH [2]: 3.8%

SMILES: O=C(NNc1nc(-c2ccc(Br)cc2)cs1)c1ccco1 [Comp. 28, N′-[4-(4-bromophenyl)-1,3-thiazol-2-yl]-2-furohydrazide]
- DC50 [1]: 2 µM
- IC50 [1]: 60.9 µM
- LDH [2]: 3.8%

SMILES: O=C(NNc1nc(-c2ccccc2)cs1)c1ccc2c(c1)OCO2 [Comp. 45, N′-(4-phenyl-1,3-thiazol-2-yl)-1,3-benzodioxole-5-carbohydrazide]
- DC50 [1]: > 200 µM
- IC50 [1]: > 200 µM
- LDH [2]: 22.6%

SMILES: O=C(NNc1nc(-c2ccc(Br)cc2)cs1)c1ccc(-c2ccccc2)cc1 [Comp. 39, N′-[4-(4-bromophenyl)-1,3-thiazol-2-yl]-1,1′-biphenyl-4-carbohydrazide]
- DC50 [1]: > 200 µM
- IC50 [1]: > 200 µM
- LDH [2]: 4.9%

SMILES: CN(C(=O)c1ccc(-c2ccccc2)cc1)N(C)c1nc(-c2ccc([N+](=O)[O-])cc2)cs1 [Comp. 77, N,N′-dimethyl-N′-[4-(4-nitrophenyl)-1,3-thiazol-2-yl]-1,1′-biphenyl-4-carbohydrazide]
- DC50 [1]: 17.7 µM
- IC50 [1]: 10.9 µM

SMILES: O=C(NNc1nc(-c2ccc([N+](=O)[O-])cc2)cs1)c1cccnc1 [Comp. 11, N′-[4-(4-nitrophenyl)-1,3-thiazol-2-yl]nicotinohydrazide]
- DC50 [1]: 0.7 µM
- IC50 [1]: 3.1 µM
- LDH [2]: 12.9%

SMILES: O=C(NNc1nc(-c2ccc(-c3ccccc3)cc2)cs1)c1ccccc1F [Comp. 74, N′-[4-(1,1′-biphenyl-4-yl)-1,3-thiazol-2-yl]-2-fluorobenzohydrazide]
- DC50 [1]: 53.9 µM
- IC50 [1]: 20.5 µM

SMILES: COc1ccc(-c2csc(NNC(=O)c3ccccc3)n2)cc1 [Comp. 69, N′-[4-(4-methoxyphenyl)-1,3-thiazol-2-yl]benzohydrazide]
- DC50 [1]: 19.4 µM
- IC50 [1]: 51.3 µM
